Measurements taken from patent US8143419B2, “Trisubstituted 1,2,4-triazoles” (Janssen Pharmaceutica N. V., priority 2006, dated 2012).

What was measured:
hα7-wt nAChR = target: T1, hα7-wt nAChR (Homo sapiens, UniProt P36544); assay: Ca2+ flux imaging (FDSS) (Protocol B), PAM activity with choline as agonist; format: cell-based; conditions: for EC50: "<5" = no top plateau at maximal concentration; for Emax: read-out: % efficacy
T1 construct: expressed in transfected cells
Experimental: • Hanks buffered saline solution (HBSS, Invitrogen, Belgium), supplemented with 10 mM HEPES (Invitrogen, Belgium), CaCl2 to a final concentration of 5 mM, 0.1% Bovine serum albumin (Sigma-Aldrich NV, Belgium). b) Calcium-Sensitive Dye—Fluo-4AM • Fluo-4AM (Molecular Probes, USA) was dissolved in DMSO containing 10% Pluronic acid (Molecular Probes, USA) to give a stock solution which was diluted in assay buffer supplemented with 5 mM probenicid (Sigma, Aldrich NV, Belgium) to give a final concentration of 2 μM. c) 384-Well Plates • Black 384 well plate black/clear plates, PDL pre-coated (Corning, Incorporated, USA) d) Calcium Flux Measurement
A Functional drug screening system (FDSS, Hamamatsu) was used to measure intracellular free-calcium flux signals.
Monolayers of hα7-wt nAChR-expressing cells were grown in multi-well plates, in particular black-sided, transparent bottomed 384 well plates coated with poly-D-lysine for 24 hours prior to loading with a fluorescent calcium indicator, in a particular embodiment loading with fluo-4AM for up to 120 minutes.
PAM activity was detected in real time by applying the compounds to be tested to the loaded cells along with a α7 nicotinic receptor agonist during constant monitoring of cellular fluorescence in a FDSS. Compounds giving peak fluorescent responses greater than the response due to agonist alone, were considered to be α7 nAChR PAM's. In a particular embodiment, the α7 nicotinic receptor agonist was choline, a more particular embodiment choline applied at a sub-maximal concentration of 100 μM. In a further setting of the present invention the compounds to be tested were applied prior to the α7 nicotinic receptor agonist, in a particular embodiment up to 10 minutes prior to the agonist.
A control response to choline was calculated on each plate from the difference in peak in fluorescence in wells receiving either choline or assay buffer alone. Compounds of the present invention were tested at a concentration range from 0.01 μM to 30 μM. Compounds were considered to have an interesting activity when they potentiated the choline signal at least with 500% when tested at a concentration of 30 μM (the efficacy of 100 μM choline was defined as 100% in the absence of a PAM). The compounds also have a potentiating effect on the response to choline when measured by whole-cell patch clamp electrophysiology in GH4C1 cells stably over-expressing the human wild-type α7 receptor.

T1 sequence (P36544 23-502): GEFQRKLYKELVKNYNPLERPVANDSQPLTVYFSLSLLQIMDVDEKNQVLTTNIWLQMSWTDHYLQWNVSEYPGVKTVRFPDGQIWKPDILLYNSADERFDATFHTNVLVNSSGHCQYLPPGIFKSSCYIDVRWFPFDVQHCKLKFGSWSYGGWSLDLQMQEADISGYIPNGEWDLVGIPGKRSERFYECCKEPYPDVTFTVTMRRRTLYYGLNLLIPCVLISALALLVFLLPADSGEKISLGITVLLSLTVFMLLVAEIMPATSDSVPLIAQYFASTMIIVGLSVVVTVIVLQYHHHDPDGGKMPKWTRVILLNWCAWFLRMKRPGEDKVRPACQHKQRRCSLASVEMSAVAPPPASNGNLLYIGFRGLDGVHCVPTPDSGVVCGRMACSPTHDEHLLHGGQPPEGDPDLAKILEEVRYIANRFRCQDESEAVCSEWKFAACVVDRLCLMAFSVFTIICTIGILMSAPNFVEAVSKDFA

## CC(C)c1ccc(-c2nc(Nc3ccc(F)cc3)nn2CCO)cn1 [Compound 169]
hα7-wt nAChR
  EC50: 3160 nM
  Emax: 762%
other
  melting point: 135.1 °C

## C/C(N)=N/OC(=O)CCn1nc(Nc2ccc(F)c(C(F)(F)F)c2)nc1-c1ccncc1 [Compound 53]
hα7-wt nAChR
  EC50: 5010 nM
other
  melting point: 190.2 °C

## CC(C)Oc1cc(-c2nc(Nc3cccc(C(F)(F)F)c3)nn2CCO)ccn1 [Compound 74]
hα7-wt nAChR
  EC50: 1260 nM
other
  melting point: 159 °C

## CC(C)NC(=O)Cn1nc(Nc2cccc(C(F)(F)F)c2)nc1-c1ccc2c(c1)OCCO2 [Compound 5]
hα7-wt nAChR
  EC50: 200 nM
other
  melting point: 213.9 to 215 °C

## CC(=O)CCn1nc(Nc2cccc(C(F)(F)F)c2)nc1-c1ccnc(C)c1 [Compound 47]
hα7-wt nAChR
  EC50: > 10000 nM
other
  melting point: 138.1 °C

## CNC(=O)Cn1nc(Nc2ccc(F)c(C(F)(F)F)c2)nc1-c1ccc(OC)nc1 [Compound 110]
hα7-wt nAChR
  EC50: 126 nM
other
  melting point: 255.1 °C

## CNC(=O)Cn1nc(Nc2ccnc(C(F)(F)F)c2)nc1-c1ccc2c(c1)OCCO2 [Compound 212]
hα7-wt nAChR
  EC50: 1260 nM
other
  melting point: 214.2 to 223.5 °C

## CNC(=O)c1ccc(-c2nc(Nc3ccc(F)c(F)c3)nn2C[C@H](C)O)cn1 [Compound 41]
hα7-wt nAChR
  EC50: > 10000 nM
  Emax: 635%
other
  melting point: 186.1 °C

## CC(=O)c1ccc(-c2nc(Nc3ccc(F)c(F)c3)nn2C[C@H](C)O)cn1 [Compound 50]
hα7-wt nAChR
  EC50: 6310 nM
  Emax: 650%
other
  melting point: 147.8 °C

## CNC(=O)Cn1nc(Nc2ccc(F)c(C(F)(F)F)c2)nc1-c1ccc(NC)nc1 [Compound 113]
hα7-wt nAChR
  EC50: 2000 nM
other
  melting point: 256.6 °C

## CCNC(=O)Cn1nc(Nc2cccc(OC(F)(F)F)c2)nc1-c1ccc2c(c1)OCCO2 [Compound 158]
hα7-wt nAChR
  EC50: 158 nM
other
  melting point: 188.7 °C

## Cc1cc(-c2nc(Nc3cccc(OC(F)(F)F)c3)nn2CC(C)O)ccn1 (centres unmarked) [Compound 148]
hα7-wt nAChR
  EC50: 5010 nM
other
  melting point: 130.9 °C

## COc1ccc(Nc2nc(-c3ccnc(C4CC4)c3)n(CCF)n2)cc1C(F)(F)F [Compound 44]
hα7-wt nAChR
  EC50: 1260 nM
  Emax: 818%
other
  melting point: 165.8 °C

## COc1ccc(-c2nc(Nc3ccc(F)c(C(F)(F)F)c3)nn2CC(=O)NC(C)C)c(OC)c1 [Compound 119]
hα7-wt nAChR
  EC50: 794 nM
  Emax: 974%
other
  melting point: 215 to 219.2 °C

## OCCn1nc(Nc2ccc(F)cc2)nc1-c1ccc(C2CC2)nc1 [Compound 171]
hα7-wt nAChR
  EC50: 2510 nM
other
  melting point: 169.8 °C

## CNC(=O)Cn1nc(Nc2ccc(F)c(C(F)(F)F)c2)nc1-c1ccc(C)nc1 [Compound 108]
hα7-wt nAChR
  EC50: 2510 nM
other
  melting point: 247.1 °C

## Cc1cc(-c2nc(Nc3ccc4c(c3)OC(F)(F)O4)nn2CCC(=O)N(C)C)ccn1 [Compound 45]
hα7-wt nAChR
  EC50: 631 nM
other
  melting point: 219.3 °C

## CCNC(=O)Cn1nc(Nc2cc(F)c(F)c(F)c2)nc1-c1ccnc(NCC)c1 [Compound 180]
hα7-wt nAChR
  EC50: 158 nM
other
  melting point: 259.6 °C

## Cc1cc(-c2nc(Nc3ccc(F)c(C(F)(F)F)c3)nn2CC(=O)N2CCCC2)ccn1 [Compound 124]
hα7-wt nAChR
  EC50: 2510 nM
other
  melting point: 172.3 °C

## COc1cc(-c2nc(Nc3cccc(C(F)(F)F)c3)nn2CCC(=O)N(C)C)cc(C)n1 [Compound 83]
hα7-wt nAChR
  EC50: 200 nM
other
  melting point: 187.2 °C

## CNC(=O)Cn1nc(Nc2cc(F)c(F)c(NC)c2)nc1-c1ccnc(NC)c1 [Compound 35]
hα7-wt nAChR
  EC50: > 10000 nM
other
  melting point: 221.6 °C

## COc1ccc(Nc2nc(-c3ccncc3)n(CCO)n2)cc1C(F)(F)F [Compound 143]
hα7-wt nAChR
  EC50: 2000 nM
other
  melting point: 240.4 °C

## CCNc1cc(-c2nc(Nc3cc(F)c(F)c(F)c3)nn2C[C@H](C)O)ccn1 [Compound 39]
hα7-wt nAChR
  EC50: 1000 nM
other
  melting point: 165.1 °C

## CC(C)(O)c1cc(-c2nc(Nc3ccc(F)c(C(F)(F)F)c3)nn2CC(=O)NC2CC2)ccn1 [Compound 122]
hα7-wt nAChR
  EC50: 2000 nM
  Emax: 988%
other
  melting point: 174 °C

## CCOc1ccc(-c2nc(Nc3ccc(F)c(C(F)(F)F)c3)nn2CC(=O)NC)cn1 [Compound 111]
hα7-wt nAChR
  EC50: 251 nM
other
  melting point: 236.2 °C

## CNC(=O)Cn1nc(Nc2cccc(OC(F)(F)F)c2)nc1-c1ccc(C2CC2)nc1 [Compound 155]
hα7-wt nAChR
  EC50: 316 nM
other
  melting point: 217 °C

## CCNc1cc(-c2nc(Nc3ccc4c(c3)OC(F)(F)O4)nn2CC(C)O)ccn1 (centres unmarked) [Compound 199]
hα7-wt nAChR
  EC50: 2510 nM
other
  melting point: 167.9 °C

## CNC(=O)Cn1nc(Nc2cccc(OC(F)(F)F)c2)nc1-c1ccc2c(c1)OCCO2 [Compound 156]
hα7-wt nAChR
  EC50: 398 nM
other
  melting point: 185.8 to 191.3 °C

## O=C(CCn1nc(Nc2cccc(C(F)(F)F)c2)nc1-c1ccncc1)N1CCCC1 [Compound 85]
hα7-wt nAChR
  EC50: 316 nM
other
  melting point: 182.2 °C

## CNC(=O)Cn1nc(Nc2ccc3c(c2)OC(F)(F)O3)nc1-c1cc(C)ncc1Cl [Compound 202]
hα7-wt nAChR
  EC50: 3160 nM
other
  melting point: 243 °C

## CNC(=O)Cn1nc(Nc2cccc(OC(F)(F)F)c2)nc1-c1ccncc1F [Compound 154]
hα7-wt nAChR
  EC50: 3160 nM
other
  melting point: 192.2 °C

## CCOc1ccc(-c2nc(Nc3ccc(F)c(C(F)(F)F)c3)nn2CCO)cn1 [Compound 91]
hα7-wt nAChR
  EC50: 501 nM
other
  melting point: 157.9 °C

## Cc1cc(-c2nc(Nc3ccc(F)c(C(F)(F)F)c3)nn2CCCC(=O)N(C)C)ccn1 [Compound 42]
hα7-wt nAChR
  EC50: 1000 nM
other
  melting point: 146.9 °C

## CN(C)C(=O)CCn1nc(Nc2cccc(C(F)(F)F)c2)nc1-c1ccncc1 [Compound 4]
hα7-wt nAChR
  EC50: 501 nM
other
  melting point: 164.2 to 174.2 °C

## CNC(=O)Cn1nc(Nc2cccc(OC(F)(F)F)c2)nc1-c1ccc2c(c1)OCCN2C [Compound 157]
hα7-wt nAChR
  EC50: 398 nM
other
  melting point: 222.4 °C

## CNc1ccc(-c2nc(Nc3cc(F)c(F)cc3F)nn2CCC(=O)N(C)C)cn1 [Compound 189]
hα7-wt nAChR
  EC50: 794 nM
other
  melting point: 166.7 °C

## CN(C)C(=O)CCn1nc(Nc2ccc(F)c(C(F)(F)F)c2)nc1-c1ccc(NC2CC2)nc1 [Compound 133]
hα7-wt nAChR
  EC50: 100 nM
other
  melting point: 150.9 °C

## CC(C)c1ccc(-c2nc(Nc3cccc(C(F)(F)F)c3)nn2CCO)cn1 [Compound 71]
hα7-wt nAChR
  EC50: 794 nM
  Emax: 601%
other
  melting point: 177.1 °C

## CC(C)NC(=O)CCn1nc(Nc2ccc(F)c(C(F)(F)F)c2)nc1-c1ccncc1 [Compound 136]
hα7-wt nAChR
  EC50: 3160 nM
other
  melting point: 217.7 °C

## COc1cc(Nc2nc(-c3ccnc(C)c3)n(CCC(=O)N(C)C)n2)cc(F)c1F [Compound 188]
hα7-wt nAChR
  EC50: 794 nM
other
  melting point: 199.8 °C

## CCc1cc(-c2nc(Nc3ccc(F)c(C(F)(F)F)c3)nn2CCO)ccn1 [Compound 88]
hα7-wt nAChR
  EC50: 631 nM
other
  melting point: 183 °C

## COc1ccc(-c2nc(Nc3cccc(OC(F)(F)F)c3)nn2CC(=O)NC(C)C)cc1OC [Compound 159]
hα7-wt nAChR
  EC50: 794 nM
  Emax: 963%
other
  melting point: 182.5 to 186.1 °C

## CN(C)c1cc(-c2nc(Nc3cccc(C(F)(F)F)c3)nn2CCO)ccn1 [Compound 75]
hα7-wt nAChR
  EC50: 2510 nM
other
  melting point: 164.2 °C

## CNC(=O)Cn1nc(Nc2ccc(F)c(C(F)(F)F)c2)nc1-c1ccncc1OC [Compound 109]
hα7-wt nAChR
  EC50: 3980 nM
other
  melting point: 234.8 °C

## Cc1nc(CCn2nc(Nc3ccc(F)c(C(F)(F)F)c3)nc2-c2ccncc2)no1 [Compound 141]
hα7-wt nAChR
  EC50: 2510 nM
other
  melting point: 140.3 °C
